Measurements published in US20210207153A1, “SYSTEMS AND METHODS FOR EDITING A PLANT GENOME” (PIONEER HI-BRED INTERNATIONAL, INC., priority 2018, published 2021).
Where “and” joins values, the source holds several entries; their conditions need not be identical. Equal entries are not always repeated. Structures can show the parent of a compound that is named as a salt. Where two headings read alike, the source gives them in different places.

Experiments:
[1] = system: pre-incubated microspores; assay: Glyphosate resistant embryo selection after bombarding pre-incubated microspores; format: cell-based, Brassica
Description: Experiments 8 to 17 describe the work done using pre-incubated microspores. The microspores were cultured in NLN-17S/10S for 2-10 days. Optimally, the microspores are cultured for 5-7 days. Embryos could not be detected with the naked eye. The embryogenic microspores were collected so that they remain viable and embryogenic with a Nitex™ sieve (15-36 um in pore size) or Percoll® (35-45%) gradient centrifugation. Pre-incubated microspores were used as bombarded materials. Any Brassica line that is capable of regenerating by microspore culture can be used. The microspores were cultured for 1-3 days in NLN-17S at 31.5° C., and then in NLN-10S for 4-5 days at 25° C. The constructs used in the bombardments were PHP18644, PHP21965, PHP22024, PHP22021, and PHP23560 (see Table 9). The constructs can be the full plasmid or the expression cassette only. For example, PHP22024 can be either the expression cassette or the full plasmid. The pre-incubated microspores were filtrated with sieves of pore size of 15 μm to 36 μm. The collected microspores were used for bombardment. The microspores were loaded on a sieve 15 μm or 20 μm on two layers of filter-paper and dried for less than one minute. […] Resistant embryos were recorded after two to three weeks of culture. […]

[2] = system: microspore-derived hypocotyls; assay: Sucrose in osmotic medium: transient GUS expression; format: cell-based, Brassica; details: for # with GUS: 24 hypocotyls
Description: Experiments 3 to 7 describe work done using microspore-derived hypocotyls. Microspores were isolated as is known to those skilled in the art and cultured in NLN medium for 21 to 28 days (Swanson et al., 1987). Hypocotyls were excised from the embryos produced from the microspores when the embryos were approximately 3-5 mm in size. Microspores of cultivar 46A65 were cultured in NLN medium for approximately 21 days. On the 21st day, the NLN medium was changed and diluted (1:20) with fresh NLN medium and the embryos were cultured for 5 more days. The hypocotyls were excised from the embryos and preconditioned overnight on MMW+BAP (4 mg/l)+NAA (0.25 mg/l). The hypocotyls were transferred to osmotic medium (for example, 17% sucrose+1% agar+1 g/l MES, pH 6.0) for 4 hours and then bombarded. The DNA construct used in bombardments was PHP 18644. After bombardment, the hypocotyls were cultured on the osmotic medium for approximately between 4 and 20 hours (for example, overnight). The bombarded hypocotyls were then cultured on MMW+BAP (4 mg/l)+kanamycin (25-50 mg/l) for bud induction. Regenerated buds were cultured on MMW+kanamycin (50-100 mg/l) or MMW+BAP (0.2 mg/l)+kanamycin (50-100 mg/l) for plant regeneration. The following experiments were done to test the effect of sucrose concentration, amount of gold particle used and the effect of rupture disk on transformation frequency.
The objective was to find the appropriate concentration of sucrose in the osmotic medium (sucrose+1% agar+1 g/l MES, pH 6.0) in order to produce the highest transformation efficiency.
GUS analysis is known to those skilled in the art. The protocol can be found in numerous references, for example Wu H, McCormac A C, Elliott M C, Chen D F (1998) Agrobacterium-mediated s table transformation of cell suspension cultures of barley (Hordeum vulgare). Plant Cell Tissue and Organ Culture 54:161-171.

[3] = system: pre-incubated microspores; assay: Sucrose in osmotic medium: resistant embryo production; format: cell-based, Brassica; details: Total of 4 reps
Description: The purpose of this experiment was to find the optimal concentration of sucrose in the osmotic medium. Microspores were cultured for 4-7 days using 17S/10S protocol. […] The rupture disk was 900 psi. […] The diluted cultures were incubated in the light for 2-3 weeks.

[4] = system: non-transgenic microspores; assay: G418 selection kill curve: embryo growth and survival in liquid medium; format: cell-based, Brassica; details: for # Green embryos or with green island: liquid medium
Description: (§1) The objective was to determine the concentration of G418 that kills non-transgenic microspores. Prior to this experiment, selection was done on solid medium, not in liquid medium. Using liquid selection for Brassica transgenic cells is novel. Selection in liquid medium is advantageous for at least the following reasons: (a) it allows selection at an early stage, thereby eliminating the need for subsequent transfers of explants, (b) it allows for a cleaner selection because the explants are generally smaller when they are in liquid medium and the liquid allows all the surfaces of the explant to be exposed to the selection agent, (c) it may reduce the frequency of chimeras, and (d) a lower amount of the selection agent is needed therefore reducing the toxicity to the researcher and the environment. The effect of various concentrations of kanamycin on embryo growth in liquid medium was tested. […] Accordingly, it was difficult to discriminate transgenic tissue or embryos from non-transgenic.

microspores = system: microspores
Description: • DNA constructs with promoter AT-UBIQ10 and glyphosate resistant gene GAT4621 were used in the following experiments. • 1. […] In developing canola transformation procedure, microspores were cultured for two days or three days in IM-17M and then cultured in NLN-10S for one day or not before bombardment.
• 2. Effect of CaC12 in IM-17M before bombardment and NLN-13S with 5 μM trifluralin on transformation efficiency • 15 mM calcium chloride was supplemented in IM-17M in microspore culture before bombardment.
It was further studied that calcium chloride was supplemented in NLN-13S with 5 μM trifluralin after bombardment on transformation efficiency.

[5] = system: non-bombarded and bombarded embryos; assay: Effect of kanamycin on embryo growth in liquid medium; format: cell-based, Brassica
Description: as §1

embryos = assay: PCIB in embryo germination medium on germination frequency; format: cell-based, canola
Description: • 4. Increase embryo germination frequency • One of technical challenges in canola transformation was that embryo germination frequency was only around 20%. Antiauxin 2-(p-Chlorophenoxy)-2-methylpropionic acid (PCIB) was included in embryo germination medium BGM for inhibiting callusing. Embryo germination frequency was doubled when 0.0625-1 mg/l PCIB was added in BGM with 0.1 mM glyphosate

resistant embryos = assay: ABA application and embryo partial desiccation on embryo germination frequency; format: cell-based, canola
Description: To further increase embryo germination frequency, abscisic acid (ABA) at 25 μM was added in microspore culture medium NLN-10S with 0.1 -0.2 mM glyphosate 14 days after bombardment. The resistant embryos were partially desiccated in a Petri dish for one week at 25° C. The Petri dish contained a piece of Bounty paper towel with water for maintaining moisture.

[6] = 15 mM CaCl2 in IM-17M before bombardment, 24 shots
[7] = ABA 25 μM plus partial desiccation

Compound: O=C(O)CNCP(=O)(O)O [glyphosate]
- identification of resistant embryos ([1]; glyphosate 0.1 mM or 0.2 mM): allowed identification of resistant embryos
- selection efficiency ([1]; glyphosate 0.2 mM versus 0.1 mM): fewer false positive results

Compound: OC[C@H]1O[C@@](CO)(O[C@H]2O[C@H](CO)[C@@H](O)[C@H](O)[C@H]2O)[C@@H](O)[C@@H]1O [Sucrose, sucrose]
- # spots/hypocotyls ([2]; 15% sucrose): 9.8
- # total spots ([2]; 15% sucrose): 236
- # with GUS ([2]; 15% sucrose): 23
- # spots/hypocotyls ([2]; 17% sucrose): 10.1
- # total spots ([2]; 17% sucrose): 242
- # with GUS ([2]; 17% sucrose): 23
- # spots/hypocotyls ([2]; 19% sucrose): 19.8
- # total spots ([2]; 19% sucrose): 475
- # with GUS ([2]; 19% sucrose): 23
- # spots/hypocotyls ([2]; 21% sucrose): 16.7
- # total spots ([2]; 21% sucrose): 400
- # with GUS ([2]; 21% sucrose): 24
- Resistant embryos/plate ([3]; 17% sucrose): 2.5
- Resistant embryos/plate ([3]; 19% sucrose): 2.1

Compound: CN[C@@H]1[C@@H](O)[C@@H](O[C@@H]2[C@@H](O)[C@H](O[C@H]3O[C@H]([C@@H](C)O)[C@@H](O)[C@H](O)[C@H]3N)[C@@H](N)C[C@H]2N)OC[C@]1(C)O [Variant G418, G418 disulfate salt]
- # Green embryos or with green island ([4]; G418 1.25 mg/l, disulfate salt): 30 and 28
- # Green embryos or with green island ([4]; G418 2.5 mg/l, disulfate salt): 14 and 11
- # Green embryos or with green island ([4]; G418 5 mg/l): 0
- # Green embryos or with green island ([4]; G418 10 mg/l): 0
- concentration sufficient to differentiate transformed cells from untransformed cells ([4]; NLN with 6.5% sucrose medium): 5 to 10 mg/L

Compound: [Ca+2].[Cl-].[Cl-] [CaCl2, calcium chloride]
- # embryos (microspores; [6]): 574
- Embryos/shot (microspores; [6]): 23.9
- Embryos/shot (microspores; CaCl2 0 mM in IM-17M, 10 mM in NLN-13S + trifluralin): 11
- # embryos (microspores; CaCl2 0 mM in IM-17M, 10 mM in NLN-13S + trifluralin, 15 shots): 169
- Embryos/shot (microspores; CaCl2 0 mM in IM-17M, 20 mM in NLN-13S + trifluralin): 16
- # embryos (microspores; CaCl2 0 mM in IM-17M, 20 mM in NLN-13S + trifluralin, 19 shots): 300
- Embryos/shot (microspores; CaCl2 15 mM in IM-17M, 0 mM in NLN-13S + trifluralin): 6
- # embryos (microspores; CaCl2 15 mM in IM-17M, 0 mM in NLN-13S + trifluralin, 22 shots): 139

Compound: NC[C@H]1O[C@H](O[C@H]2[C@H](O)[C@@H](O[C@H]3O[C@H](CO)[C@@H](O)[C@H](N)[C@H]3O)[C@H](N)C[C@@H]2N)[C@H](O)[C@@H](O)[C@@H]1O [kanamycin]
- concentration sufficient to bleach non-bombarded embryos and inhibit non-bombarded embryo growth [5]: 10 mg/L

Compound: CC(C)(Oc1ccc(Cl)cc1)C(=O)O [PCIB, 2-(p-Chlorophenoxy)-2-methylpropionic acid]
- embryo germination frequency, change (embryos; 0.0625-1 mg/l PCIB in BGM with 0.1 mM glyphosate): doubled
- Germination frequency (embryos; PCIB 0.0625 mg/l): 44%
- # plantlets (embryos; PCIB 0.0625 mg/l in BGM with 0.1 mM glyphosate, 63 embryos): 28
- Germination frequency (embryos; PCIB 0.125 mg/l): 43%
- # plantlets (embryos; PCIB 0.125 mg/l, 72 embryos): 31
- Germination frequency (embryos; PCIB 0.25 mg/l): 50%
- # plantlets (embryos; PCIB 0.25 mg/l, 72 embryos): 36
- Germination frequency (embryos; PCIB 0.5 mg/l): 44%
- # plantlets (embryos; PCIB 0.5 mg/l, 63 embryos): 28
- Germination frequency (embryos; PCIB 1 mg/l): 44%
- # plantlets (embryos; PCIB 1 mg/l, 81 embryos): 36

Compound: CC1=CC(=O)CC(C)(C)[C@@]1(O)/C=C/C(C)=C\C(=O)O [ABA, abscisic acid]
- Total shoots (resistant embryos; ABA 25 μM in NLN-10S 14 days after bombardment plus partial desiccation one week, 479 embryos): 338
- Germination (resistant embryos; [7]): 76.6%
- embryo germination frequency, change (resistant embryos; [7]): significantly increased
